From patent US10654820B2, “Crystal form of tasimelteon” (ZHEJIANG JINGXIN PHARMACEUTICAL CO., LTD., priority 2016, dated 2020)
In brackets after ≈: the same amount, converted by molar mass. Entries after “also recorded” stand apart in the source; their conditions may differ.

Legend:
[1] = system: totally blind subjects diagnosed with non-24; details: cited from earlier work
[2] = Solubility in water at 37° C. (equilibrium solubility, 72 hours, absorbance at 281 nm); assay type: physicochemical; details: balanced for 72 hours
Experimental: Example 22 Solubility in Water at 37° C.
Move 25 ml water into a 50 ml eggplant bottle separately, add crystal form I and crystal form II Tasimelteon separately, stir in a constant temperature oil bath to balance for 72 hours, and then filtrate by 0.45 microporous membrane. The filtrate is diluted by water. The water solubilities of crystal form I and crystal form II at 37° C. were determined by calculating each sample concentration of its saturated solution determined through measuring absorbance at λmax (281 nm). Standard curve method is used to calculate the equilibrium solubility.

[3] = Intrinsic dissolution studies in water; assay type: physicochemical; details: 37° C., 150 r.p.m., compressed disk
Experimental: Example 23 Intrinsic Dissolution Studies
200 mg of crystal form I or crystal form II was taken in the intrinsic attachment and compressed to a 1.33 cm^2 and 0.1 cm thick of disk using a hydraulic press at a pressure of 9 MPa for 60 s. The intrinsic attachment was placed in a jar of 100 mL of water to 37° C. and rotated at 150 r.p.m. 1 milliliter of the aliquot each is collected at specific time intervals and blank medium of the same volume and temperature is added, and the absorbance at max (281 nm) is measured, and the cumulative dissolution rate is calculated to plot the concentration-time standard curves of the respective compounds.

[4] = Thermogravimetric analysis (TGA), thermal stability; assay type: physicochemical; details: for thermal stability: result in words
Experimental: Thermogravimetric Analysis (TGA)
TGA was performed on a TA instruments SDT Q600 thermogravimetric analyzer. The samples were heated over the temperature range room temperature of 30-365° C. at a constant heating rate of 10° C./min. The samples were purged with a stream of flowing nitrogen at 120 ml/min throughout the experiment.

Row | water solubility [2] [µg/mL] | decomposition temperature (TGA) ([4]; heating rate of 10° C./min, nitrogen) | thermal stability [4] | solubility at 72 h ([2]; 37 °C, thermodynamic from solid) [µg/mL] | intrinsic dissolution rate ([3]; FIG. 9, listed as form I) | Compound | proportion of individuals becoming entrained to the 24-hour cycle ([1]; physiologic monitoring, compared with placebo) | efficacy on nighttime wakefulness and daytime napping ([1]; totally blind subjects diagnosed with non-24) | intrinsic dissolution rate ([3]; FIG. 9)
1 | – | – | – | – | – | CCC(=O)NC[C@@H]1C[C@H]1c1cccc2c1CCO2 [Tasimelteon, (1R-2R)—N-[2-(2,3-dihydrobenzofuran-4-yl)cyclopropylmethyl]propanamide] | higher proportion of individuals becoming entrained to the 24-hour cycle compared with placebo | reducing both nighttime wakefulness and daytime napping | –
2 | 104 (≈ 424 µM) | approximately 200 °C | good thermal stability | – | – | CCC(=O)NC[C@@H]1C[C@H]1c1cccc2c1CCO2 [crystal form II, (1R-2R)—N-[2-(2,3-dihydrobenzofuran-4-yl)cyclopropylmethyl]propanamide] | – | – | high in water, especially for crystal form II compared to crystal form I; also recorded: good dissolution rate, especially for crystal form II compared to form I
3 | – | – | good thermal stability | 81 (≈ 330 µM) | good dissolution rate | CCC(=O)NC[C@@H]1C[C@H]1c1cccc2c1CCO2 [crystal form I, (1R-2R)—N-[2-(2,3-dihydrobenzofuran-4-yl)cyclopropylmethyl]propanamide] | – | – | high
